Measured values taken from article PMC10709440, “High-throughput ligand profile characterization in novel cell lines expressing seven heterologous insect olfactory receptors for the detection of volatile plant biomarkers” (Scientific Reports, 2023).
Where two headings read alike, the source gives them in different places.

How the values were obtained:
[1] = biological target: T1, Drosophila OR13a (Drosophila melanogaster, UniProt Q9VXL0); assay: Calcium ion fluorescence (GCaMP6) assay, OR13a stable HEK293 cell line; assay type: cell-based; settings: for OR13a Average response (VUAA1-normalized): 50 μM VUAA1 = 1, responses not exceeding 0.05 considered 0; for DF norm AVERAGE OR13a: normalized fluorescence change, values below 0.05 threshold given as 0
T1 construct: expressed in transfected cells
T1 sequence (Q9VXL0 1-418): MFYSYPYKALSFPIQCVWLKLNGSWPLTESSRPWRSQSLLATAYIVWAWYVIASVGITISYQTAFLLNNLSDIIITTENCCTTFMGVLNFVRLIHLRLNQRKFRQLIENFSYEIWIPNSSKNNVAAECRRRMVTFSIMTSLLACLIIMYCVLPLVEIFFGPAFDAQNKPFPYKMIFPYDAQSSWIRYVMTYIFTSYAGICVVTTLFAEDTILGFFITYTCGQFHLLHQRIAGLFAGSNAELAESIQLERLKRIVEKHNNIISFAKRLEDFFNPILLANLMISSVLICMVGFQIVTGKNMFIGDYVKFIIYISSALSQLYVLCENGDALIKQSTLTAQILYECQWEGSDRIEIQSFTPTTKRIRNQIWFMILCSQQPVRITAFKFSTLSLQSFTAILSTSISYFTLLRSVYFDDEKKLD
T1 sequence (Q9VNB5 1-486 partner): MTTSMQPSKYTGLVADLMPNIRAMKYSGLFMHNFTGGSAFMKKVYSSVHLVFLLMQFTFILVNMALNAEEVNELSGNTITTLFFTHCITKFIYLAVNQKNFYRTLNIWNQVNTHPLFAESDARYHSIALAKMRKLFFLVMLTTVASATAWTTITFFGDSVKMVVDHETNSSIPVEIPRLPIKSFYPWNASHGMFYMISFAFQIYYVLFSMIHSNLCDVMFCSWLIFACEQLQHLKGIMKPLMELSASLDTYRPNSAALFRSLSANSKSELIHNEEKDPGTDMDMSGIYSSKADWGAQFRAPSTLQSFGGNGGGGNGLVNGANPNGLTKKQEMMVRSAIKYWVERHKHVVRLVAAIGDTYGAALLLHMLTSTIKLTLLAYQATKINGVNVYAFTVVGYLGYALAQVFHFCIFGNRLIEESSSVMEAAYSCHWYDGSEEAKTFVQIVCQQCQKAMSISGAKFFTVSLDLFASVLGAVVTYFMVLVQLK
In short: (§1)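 Responses are VUAA1-normalized ΔF: each VOC-evoked calcium signal, (FMAX−F0)/F0 over 30 s after injection, divided by the same line's mean 50 µM VUAA1 response. Cells were doxycycline-induced HEK293 with GCaMP6 and the cognate Drosophila OR, in HEPES buffer pH 7.3; ligands tested 0.01–100 μM.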

[2] = biological target: T2, Drosophila OR10a (Drosophila melanogaster, UniProt Q9VYZ1); assay: Calcium ion fluorescence (GCaMP6) assay, OR10a stable HEK293 cell line; assay type: cell-based; settings: for OR10a Average response (VUAA1-normalized): 50 μM VUAA1 = 1, responses not exceeding 0.05 considered 0
T2 construct: expressed in transfected cells
T2 sequence (Q9VYZ1 1-406): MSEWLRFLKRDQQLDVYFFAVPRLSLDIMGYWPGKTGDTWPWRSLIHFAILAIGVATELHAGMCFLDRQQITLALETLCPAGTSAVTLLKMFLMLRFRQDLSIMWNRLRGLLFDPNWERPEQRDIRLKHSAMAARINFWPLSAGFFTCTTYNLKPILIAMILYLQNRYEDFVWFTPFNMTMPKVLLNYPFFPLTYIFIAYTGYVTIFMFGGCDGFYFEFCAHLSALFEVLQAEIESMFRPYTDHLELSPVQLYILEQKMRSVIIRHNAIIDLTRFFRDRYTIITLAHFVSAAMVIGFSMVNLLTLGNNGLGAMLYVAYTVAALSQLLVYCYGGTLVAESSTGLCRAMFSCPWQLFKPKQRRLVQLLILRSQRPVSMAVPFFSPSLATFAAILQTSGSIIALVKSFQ
T2 sequence (Q9VNB5 1-486 partner): T1 sequence (Q9VNB5 1-486 partner)
In short: as §1

Substance | OR13a Average response (VUAA1-normalized) ([1]; 1 μM VOC) | OR13a Average response (VUAA1-normalized) ([1]; 10 μM VOC) | OR13a Average response (VUAA1-normalized) ([1]; 100 μM VOC) | OR13a response (VUAA1-normalized response) ([1]; VOC concentration 1 μM) | OR13a response (VUAA1-normalized response) ([1]; VOC concentration 10 μM) | OR13a response (VUAA1-normalized response) ([1]; VOC concentration 100 μM) | DF norm AVERAGE OR13a ([1]; concentration 1) | DF norm AVERAGE OR13a ([1]; concentration 10) | DF norm AVERAGE OR13a ([1]; concentration 100) | DF norm AVERAGE OR10a [2] | OR10a Average response (VUAA1-normalized) ([2]; 1 μM VOC) | OR10a Average response (VUAA1-normalized) ([2]; 10 μM VOC) | OR10a Average response (VUAA1-normalized) ([2]; 100 μM VOC) | OR10a response (VUAA1-normalized response) ([2]; VOC concentration 1 μM) | OR10a response (VUAA1-normalized response) ([2]; VOC concentration 10 μM) | OR10a response (VUAA1-normalized response) ([2]; VOC concentration 100 μM) | DF norm AVERAGE OR10a ([2]; concentration 10, normalized fluorescence change, values below 0.05 threshold given as 0)
(+)-beta-cedrene | 0.00 | 0.00 | 0.00 | 0.00 | 0.00 | 0.00 | 0 | 0 | 0 | 0 | 0.0218 | 0.0187 | 0.00 | 0.00 | 0.00 | 0.00 | 
(-)-alpha-cedrene | 0.00 | 0.00 | 0.00 | 0.00 | 0.00 | 0.00 | 0 | 0 | 0 | 0 | 0.02 | 0.06 | 0.00 | 0.00 | 0.06 | 0.00 | 0.05923
